Source: the NIST ThermoML archive (doi:10.1016/j.fluid.2013.12.008)
Numbers after ± are expanded uncertainties.

Legend:
[1] = 101 kPa, Liquid; for viscosity: Falling or rolling sphere viscometry; for mass density: Vibrating tube method
[2] = xn = mol fraction of the nth substance listed; settings: 101 kPa, Liquid; for viscosity: Falling or rolling sphere viscometry; for mass density: Vibrating tube method

CCn1cc[n+](C)c1.N#C[C-](C#N)C#N [1-ethyl-3-methyl-1H-imidazolium tricyanomethanide]
[1]
Settings | mass density [kg/m3] | viscosity [mPa·s]
293.15 K | 1085.2 ± 1.4 | 17.72 ± 0.42
303.15 K | 1078.1 ± 1.4 | 12.88 ± 0.3
313.15 K | 1071.1 ± 1.3 | 9.8 ± 0.23
323.15 K | 1064.1 ± 1.3 | 7.73 ± 0.18
333.15 K | 1057.2 ± 1.3 | 5.93 ± 0.14
343.15 K | 1050.4 ± 1.3 | 4.91 ± 0.12
353.15 K | 1043.6 ± 1.3 | 4.15 ± 0.1

CCn1cc[n+](C)c1.N#C[C-](C#N)C#N [1-ethyl-3-methyl-1H-imidazolium tricyanomethanide] + CCn1cc[n+](C)c1.N#CN=C=[N-]
[2]
Settings | mass density, x1 = 0.2 [kg/m3] | mass density, x1 = 0.4 [kg/m3] | mass density, x1 = 0.6 [kg/m3] | mass density, x1 = 0.8 [kg/m3] | mass density, x1 = 1 [kg/m3] | viscosity, x1 = 0.2 [mPa·s] | viscosity, x1 = 0.4 [mPa·s] | viscosity, x1 = 0.6 [mPa·s] | viscosity, x1 = 0.8 [mPa·s] | viscosity, x1 = 1 [mPa·s]
293.15 K | 1099.9 ± 1.4 | 1095.8 ± 1.4 | 1091.9 ± 1.4 | 1088.4 ± 1.4 | 1085.2 ± 1.4 | 17.55 ± 0.41 | 17.59 ± 0.41 | 17.6 ± 0.41 | 17.64 ± 0.41 | 17.72 ± 0.42
303.15 K | 1093.2 ± 1.4 | 1088.9 ± 1.4 | 1085 ± 1.4 | 1081.4 ± 1.4 | 1078.1 ± 1.4 | 13.05 ± 0.31 | 13.02 ± 0.31 | 13.01 ± 0.31 | 12.89 ± 0.3 | 12.88 ± 0.3
313.15 K | 1086.5 ± 1.4 | 1082.2 ± 1.4 | 1078.1 ± 1.4 | 1074.5 ± 1.3 | 1071.1 ± 1.3 | 10.12 ± 0.24 | 10.05 ± 0.24 | 10.02 ± 0.24 | 9.89 ± 0.23 | 9.8 ± 0.23
323.15 K | 1079.9 ± 1.4 | 1075.5 ± 1.4 | 1071.3 ± 1.3 | 1067.6 ± 1.3 | 1064.1 ± 1.3 | 7.92 ± 0.19 | 7.84 ± 0.18 | 7.8 ± 0.18 | 7.77 ± 0.18 | 7.73 ± 0.18
333.15 K | 1073.4 ± 1.3 | 1068.8 ± 1.3 | 1064.6 ± 1.3 | 1060.8 ± 1.3 | 1057.2 ± 1.3 | 6.26 ± 0.15 | 6.22 ± 0.15 | 6.19 ± 0.15 | 6.15 ± 0.14 | 5.93 ± 0.14
343.15 K | 1066.9 ± 1.3 | 1062.3 ± 1.3 | 1057.9 ± 1.3 | 1054.1 ± 1.3 | 1050.4 ± 1.3 | 5.23 ± 0.12 | 5.21 ± 0.12 | 5.2 ± 0.12 | 5.1 ± 0.12 | 4.91 ± 0.12
353.15 K | 1060.5 ± 1.3 | 1055.7 ± 1.3 | 1051.3 ± 1.3 | 1047.4 ± 1.3 | 1043.6 ± 1.3 | 4.44 ± 0.1 | 4.42 ± 0.1 | 4.38 ± 0.1 | 4.32 ± 0.1 | 4.15 ± 0.1

CCn1cc[n+](C)c1.N#CN=C=[N-] [1-ethyl-3-methylimidazolium dicyanamide]
[1]
Settings | mass density [kg/m3] | viscosity [mPa·s]
293.15 K | 1104.6 ± 1.4 | 17.54 ± 0.41
303.15 K | 1098 ± 1.4 | 13.11 ± 0.31
313.15 K | 1091.4 ± 1.4 | 10.17 ± 0.24
323.15 K | 1084.9 ± 1.4 | 8.13 ± 0.19
333.15 K | 1078.5 ± 1.4 | 6.66 ± 0.16
343.15 K | 1072.1 ± 1.3 | 5.58 ± 0.13
353.15 K | 1065.8 ± 1.3 | 4.75 ± 0.11

CCn1cc[n+](C)c1.N#CN=C=[N-] [1-ethyl-3-methylimidazolium dicyanamide] + CCn1cc[n+](C)c1.N#C[C-](C#N)C#N
[2], x2 = 0
Settings | mass density [kg/m3] | viscosity [mPa·s]
293.15 K | 1104.6 ± 1.4 | 17.54 ± 0.41
303.15 K | 1098 ± 1.4 | 13.11 ± 0.31
313.15 K | 1091.4 ± 1.4 | 10.17 ± 0.24
323.15 K | 1084.9 ± 1.4 | 8.13 ± 0.19
333.15 K | 1078.5 ± 1.4 | 6.66 ± 0.16
343.15 K | 1072.1 ± 1.3 | 5.58 ± 0.13
353.15 K | 1065.8 ± 1.3 | 4.75 ± 0.11
